Source: paper PMC7699745, “The Search for New Anticonvulsants in a Group of (2,5-Dioxopyrrolidin-1-yl)(phenyl)Acetamides with Hybrid Structure—Synthesis and In Vivo/In Vitro Studies” (International Journal of Molecular Sciences, 2020)
Where two headings read alike, the source gives them in different places.

Tests used:
[1] = system: MES seizures, mice; assay: Maximal electroshock (MES) seizure test; assay type: in vivo; conditions: Mus musculus, ip; for responders at 100 mg/kg: 0.5 h, i.p.; for ED50: at TPE (0.5 h; LTG 1.0 h), 95% confidence intervals in parentheses
[2] = system: 6 Hz (32 mA) seizures, mice; assay: Psychomotor 6 Hz (32 mA) seizure model; assay type: in vivo; conditions: for responders at 100 mg/kg / ED50: Mus musculus, ip; for responders at 100 mg/kg / protection in the 6 Hz (32 mA) test: 0.5 h, 100 mg/kg; for responders at 100 mg/kg: read-out: 6 Hz (32 mA) test, number of mice protected / number of mice tested (converted); for ED50: at TPE (0.5 h; LTG 1.0 h), 95% confidence intervals in parentheses; for protection in the 6 Hz (32 mA) test: i.p., groups of four
[3] = Rotarod test for acute neurological toxicity; conditions: mouse, in vivo, ip
[4] = system: motor coordination of mice; assay: Rotarod test for acute neurological toxicity; conditions: for impairment of motor coordination of mice: doses as high as 300 mg/kg; for Rotarod test, number of mice / number of mice tested: i.p., 100 mg/kg, 0.5 h
[5] = read-out: MES test, number of mice protected / number of mice tested (converted)
[6] = groups of four, read-out: protection in the MES test

Structure (SMILES)	responders at 100 mg/kg [1, 5] [%]	responders at 100 mg/kg [2] [%]	responders at 100 mg/kg [1, 6] [%]	ED50 [1] [mg/kg]	ED50 [2] [mg/kg]	protection in the 6 Hz (32 mA) test [2]	melting point [°C]	TD50 at 0.5 h [3] [mg/kg]	impairment of motor coordination of mice [4]	Rotarod test, number of mice / number of mice tested [4]
O=C(Nc1cccc(F)c1)C(c1ccccc1)N1C(=O)CCC1=O (stereo not shown) [Compound 5, 2-(2,5-Dioxopyrrolidin-1-yl)-N-(3-fluorophenyl)-2-phenylacetamide]	0	25	–	–	–	–	–	–	–	–
O=C(Nc1ccc(F)cc1)C(c1ccccc1)N1C(=O)CCC1=O (stereo not shown) [Compound 6, 2-(2,5-Dioxopyrrolidin-1-yl)-N-(4-fluorophenyl)-2-phenylacetamide]	50	50	≥ 50	118	57.6	at least 50%	143.4 to 143.9	> 300	did not impair motor coordination	0/4
O=C(Nc1ccccc1Cl)C(c1ccccc1)N1C(=O)CCC1=O (stereo not shown) [Compound 7, N-(2-Chlorophenyl)-2-(2,5-dioxopyrrolidin-1-yl)-2-phenylacetamide]	0	25	–	–	–	–	76.8 to 78.6	–	–	–
O=C(Nc1cccc(Cl)c1)C(c1ccccc1)N1C(=O)CCC1=O (stereo not shown) [Compound 8, N-(3-Chlorophenyl)-2-(2,5-dioxopyrrolidin-1-yl)-2-phenylacetamide]	75	25	≥ 50	73.5	–	–	109.4 to 109.9	> 300	did not impair motor coordination	0/4
O=C(Nc1ccc(Cl)cc1)C(c1ccccc1)N1C(=O)CCC1=O (stereo not shown) [Compound 9, N-(4-Chlorophenyl)-2-(2,5-dioxopyrrolidin-1-yl)-2-phenylacetamide]	75	25	≥ 50	106	–	–	103.8 to 105.6	> 300	did not impair motor coordination	0/4
O=C(Nc1ccccc1C(F)(F)F)C(c1ccccc1)N1C(=O)CCC1=O (stereo not shown) [Compound 10, 2-(2,5-Dioxopyrrolidin-1-yl)-2-phenyl-N-(2-(trifluoromethyl)phenyl)acetamide]	0	–	–	–	–	–	–	–	–	–
O=C(Nc1cccc(C(F)(F)F)c1)C(c1ccccc1)N1C(=O)CCC1=O (stereo not shown) [Compound 11, 2-(2,5-Dioxopyrrolidin-1-yl)-2-phenyl-N-(3-(trifluoromethyl)phenyl)acetamide]	25	–	–	–	–	–	158.2 to 159.4	–	–	–
O=C(Nc1ccc(C(F)(F)F)cc1)C(c1ccccc1)N1C(=O)CCC1=O (stereo not shown) [Compound 12, 2-(2,5-Dioxopyrrolidin-1-yl)-2-phenyl-N-(4-(trifluoromethyl)phenyl)acetamide]	0	–	–	–	–	–	188.1 to 188.5	–	–	–
O=C(Nc1cccc(OC(F)(F)F)c1)C(c1ccccc1)N1C(=O)CCC1=O (stereo not shown) [Compound 13, 2-(2,5-Dioxopyrrolidin-1-yl)-2-phenyl-N-(3-(trifluoromethoxy)phenyl)acetamide]	0	–	–	–	–	–	132.6 to 133.4	–	–	–
O=C(NCc1ccccc1)C(c1ccccc1)N1C(=O)CCC1=O (stereo not shown) [Compound 14, N-Benzyl-2-(2,5-dioxopyrrolidin-1-yl)-2-phenylacetamide]	50	50	≥ 50	> 130	62.9	at least 50%	128.3 to 129.9	> 300	did not impair motor coordination	1/4
O=C(NCc1ccccc1F)C(c1ccccc1)N1C(=O)CCC1=O (stereo not shown) [Compound 15, 2-(2,5-Dioxopyrrolidin-1-yl)-N-(2-fluorobenzyl)-2-phenylacetamide]	25	–	–	–	–	–	148.3 to 149.3	–	–	–
O=C(NCc1cccc(F)c1)C(c1ccccc1)N1C(=O)CCC1=O (stereo not shown) [Compound 16, 2-(2,5-Dioxopyrrolidin-1-yl)-N-(3-fluorobenzyl)-2-phenylacetamide]	25	–	–	–	–	–	136.7 to 137.7	–	–	–
O=C(NCc1ccc(F)cc1)C(c1ccccc1)N1C(=O)CCC1=O (stereo not shown) [Compound 17, 2-(2,5-Dioxopyrrolidin-1-yl)-N-(4-fluorobenzyl)-2-phenylacetamide]	0	–	–	–	–	–	146.3 to 147.7	–	–	–
O=C(NCc1ccccc1Cl)C(c1ccccc1)N1C(=O)CCC1=O (stereo not shown) [Compound 18, N-(2-Chlorobenzyl)-2-(2,5-dioxopyrrolidin-1-yl)-2-phenylacetamide]	0	–	–	–	–	–	152 to 153.6	–	–	–
O=C(NCc1cccc(Cl)c1)C(c1ccccc1)N1C(=O)CCC1=O (stereo not shown) [Compound 19, N-(3-Chlorobenzyl)-2-(2,5-dioxopyrrolidin-1-yl)-2-phenylacetamide]	75	50	≥ 50	90.7	89.9	at least 50%	–	> 300	did not impair motor coordination	0/4
O=C(NCc1ccc(Cl)cc1)C(c1ccccc1)N1C(=O)CCC1=O (stereo not shown) [Compound 20, N-(4-Chlorobenzyl)-2-(2,5-dioxopyrrolidin-1-yl)-2-phenylacetamide]	0	–	–	–	–	–	146.3 to 147.9	–	–	–
O=C(NCc1cccc(C(F)(F)F)c1)C(c1ccccc1)N1C(=O)CCC1=O (stereo not shown) [Compound 22, 2-(2,5-Dioxopyrrolidin-1-yl)-2-phenyl-N-(3-(trifluoromethyl)benzyl)acetamide]	75	50	≥ 50	> 130	57.6	at least 50%	152.8 to 153.4	> 300	did not impair motor coordination	0/4
O=C(NCc1ccc(C(F)(F)F)cc1)C(c1ccccc1)N1C(=O)CCC1=O (stereo not shown) [Compound 23, 2-(2,5-Dioxopyrrolidin-1-yl)-2-phenyl-N-(4-(trifluoromethyl)benzyl)acetamide]	0	–	–	–	–	–	–	–	–	–
O=C(NCCc1ccccc1F)C(c1ccccc1)N1C(=O)CCC1=O (stereo not shown) [Compound 26, 2-(2,5-Dioxopyrrolidin-1-yl)-N-(2-fluorophenethyl)-2-phenylacetamide]	25	–	–	–	–	–	142.4 to 142.8	–	–	–
O=C(NCCc1ccc(Cl)cc1)C(c1ccccc1)N1C(=O)CCC1=O (stereo not shown) [Compound 28, N-(4-Chlorophenethyl)-2-(2,5-dioxopyrrolidin-1-yl)-2-phenylacetamide]	100	75	–	117	88.1	–	137.2 to 137.8	272	–	1/4
O=C(NCCCc1ccccc1)C(c1ccccc1)N1C(=O)CCC1=O (stereo not shown) [Compound 31, 2-(2,5-Dioxopyrrolidin-1-yl)-2-phenyl-N-(3-phenylpropyl)acetamide]	50	50	≥ 50	–	104	–	133.1 to 133.9	> 300	–	0/4
